# Details: 0.1% solution, PBS, 37° C.
structure (smiles),measurement,value
"Cc1cc2c(s1)Nc1ccccc1N=C2N1CCN(C)CC1 [Olanzapine, 2-methyl-4-(4-methyl-1-piperazinyl)-10H-thieno[2,3-b][1,5]benzodiazepine]",time for which olanzapine was stable,≥ 14 days
